The source of these data is patent publication US7528132B2, “Kinase inhibitors” (Schering Corporation, priority 2005, dated 2009).

A word on the IC50: it is the concentration that gives 50% inhibition.

The assay has as its target T1, Akt1 (Homo sapiens, UniProt P31749).
T1 construct: made in house; host or cells: Sf9 insect cells (baculovirus, pBlueBacHis2B)
Description: Akt1 kinase assay (33P phosphorylation of biotinylated peptide, Flash plates). The class given is biochemical. The source says: The assay described below measures the phosphorylation of a biotinylated peptide by active recombinant Akt1 and other kinase isoforms. The biotinylated peptide contains a consensus sequence derived from Akt substrate Gsk3 (Glycogen synthase kinase 3). The ^33P-labeled peptide substrate was captured by streptavidin-coated Flash plates.
Active recombinant Akt1 was expressed in Sf9 insect cells and purified as described by Kumar et al., Biochim. Biophys. Acta. Jun. 15, 2001, 1526(3), 257-268. Biotinylated peptide of the sequence Bio-ahx-RPRAASF was purchased from Syn Pep (Dublin, Calif., USA).
Cloning and Expression of Human Akt1 Sf9 Cells
Human Akt1 cDNA was amplified from a marathon-ready human lung cDNA library (Clonetech) using nested oligo primers as described below. The first round of amplification was carried out using the following primers; Akt1F1 ([…]) and Akt1R1 (TCCATC […]) and for the second round amplification, the primers of the following sequence were used; Akt1F2 (GGATCCTCGG […]) and AKT1R2 (GGTACCATCGTC […]). The PCR product was subcloned into pCRScript plasmid as a BamHI/KpnI fragment and the sequence of the cDNA was confirmed by DNA sequencing. This plasmid was used as a template for reamplification of Akt1 using appropriate primers for subcloning into pBlueBaHis2B into BamH1/EcoRI sites to generate an in frame fusion to (His)6 tag and an anti-Xpress antibody epitope tag at the N-terminus. This construct was sequenced to verify the junction sequences and used for generating a recombinant baculovirus. Growth of the recombinant virus, amplification and determination of viral titer were carried out according to the instructions from the manufacturer (InVitrogen, CA).
Purification of Akt1 from Sf9 Cells
Viral stocks were used to infect large scale Sf9 cells at a multiplicity of infection (MOI) of 2.5. Cells were maintained at 27° C. for 60 h and okadaic acid was added to the cultures to a concentration of 50 nM. Cells were harvested 4 h hours later by centrifugation at 1200 rpm for 30 min followed by freezing at −80° C. until further use. All purification steps were carried out at 4° C. Whole cell pellets were suspended in buffer A (20 mM sodium phosphate buffer pH 7.8, 500 mM NaCl, 1 mM sodium vanadate, 5 mM sodium fluoride, 40 mM β-glycerophosphate, 10 mM imidazole and protease inhibitor cocktail) and lysed using a microfluidizer. The cell extract was centrifuged at 16,000×g for 10 min to remove the debris and directly loaded onto Ni-NTA Superflow resin using a FPLC pump operated at 1 ml/min. The column was washed once with buffer A, once with wash buffer B (20 mM sodium phosphate pH 6.0, 1 mM sodium vanadate, 5 mM sodium fluoride and protease cocktail) and once with wash buffer B containing 0.05% Tween-20 followed by washing with buffer A until OD260 returned to basal level. Proteins were eluted with buffer A containing 200 mM imidazole. Fractions were analyzed by electrophoresis on 10% denaturing polyacrylamide gels and fractions containing 85% pure protein band at 60 KDa were pooled and dialyzed against buffer C (20 mM Tris-HCl pH 7.5, 0.5 mM EDTA,-2 mM DTT, 145 mM NaCl, 0.1 mM sodium vanadate, 5 mM sodium fluoride, 10 mM, β-glycerophosphate and 20% glycerol). Purified protein was stored as aliquots at −80° C. Protein concentrations were determined using BCA protein assay reagent A (Catalog #23228). To examine the identity of the proteins, 2 μg of purified protein was electrophoresed on SDS-polyacrylamide gels and stained with coomassie blue dye or transferred to nitrocellulose membrane and probed with anti-Akt and anti-phospho-specific Akt antibodies using enhanced chemiluminescence (ECL) reagent according to the protocol described by the manufacturer (Amersham).
The kinase assay was performed in 96 well plates at room temperature. Assay solutions and plates were preincubated at room temperature for 5 min. […]

The mark [1] stands for this setting: read-out: IC50 rating (AKT1 inhibition).

Read-outs that look alike come from different tables or passages of the source.

T1 sequence (P31749 whole entry): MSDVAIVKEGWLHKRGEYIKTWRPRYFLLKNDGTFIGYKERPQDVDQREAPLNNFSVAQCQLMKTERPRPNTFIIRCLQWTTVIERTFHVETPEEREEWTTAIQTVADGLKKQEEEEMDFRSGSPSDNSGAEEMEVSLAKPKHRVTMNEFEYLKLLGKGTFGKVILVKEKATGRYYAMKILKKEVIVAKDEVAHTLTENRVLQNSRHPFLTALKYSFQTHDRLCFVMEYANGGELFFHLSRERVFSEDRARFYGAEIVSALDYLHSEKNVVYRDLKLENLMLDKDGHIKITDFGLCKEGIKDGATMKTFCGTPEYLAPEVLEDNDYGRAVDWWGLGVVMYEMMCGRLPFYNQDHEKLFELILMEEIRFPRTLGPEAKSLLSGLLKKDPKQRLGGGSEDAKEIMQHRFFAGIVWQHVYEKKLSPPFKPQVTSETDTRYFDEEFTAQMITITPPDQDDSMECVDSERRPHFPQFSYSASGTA

As to `Cc1n[nH]c2ccc(-c3nncc(N4CCN(C)[C@@H](Cc5ccccc5)C4)n3)cc12` [Compound 28, 5-[(S)-3-benzyl-4-methyl-piperazin-1-yl]-3-(3-methylindazol-5-yl)-[1,2,4]triazine], under setting [1], the IC50 was less than 100 nM.

For `Cc1n[nH]c2ccc(-c3nncc(N4CCN5CCCC5C4)n3)cc12` (stereo not drawn) [Compound 29, 5-(1,4-diazabicyclo[4.3.0]non-1-yl)-3-(3-methylindazol-5-yl)-[1,2,4]triazine], under setting [1], the IC50 was greater than 1000 nM.

For `Cc1n[nH]c2ccc(-c3nncc(N4CCN5CCCCC5C4)n3)cc12` (stereo not drawn) [Compound 30, 5-(1,4-diazabicyclo[4.4.0]dec-1-yl)-3-(3-methylindazol-5-yl)-[1,2,4]triazine], under setting [1], the 50% inhibitory concentration (IC50) is greater than 1000 nM.

As to `Cc1n[nH]c2ccc(-c3nnc(Cl)c(N4CCN5CCCC5C4)n3)cc12` (stereo not drawn) [Compound 31, 6-chloro-5-(1,4-diazabicyclo[4.3.0]non-1-yl)-3-(3-methylindazol-5-yl)-[1,2,4]triazine], under setting [1], the half-inhibitory concentration (IC50) is greater than 1000 nM.

Regarding `Cc1n[nH]c2ccc(-c3nnc(Cl)c(N4CCN5CCCCC5C4)n3)cc12` (stereo not drawn) [Compound 32], under setting [1], the IC50 is greater than 1000 nM.

In the case of `Cc1n[nH]c2ccc(-c3nncc(N4CCCC(N)C4)n3)cc12` (stereo not drawn) [Compound 33, 5-(3-aminopiperidin-1-yl)-3-(3-methylindazol-5-yl)-[1,2,4]triazine], under setting [1], the IC50 fell in the range of 100 to 1000 nM.

On to `Cc1n[nH]c2ccc(-c3nnc(Cl)c(N4CCCC(N)C4)n3)cc12` (stereo not drawn) [Compound 34, 5-(3-aminopiperidin-1-yl)-6-chloro-3-(3-methylindazol-5-yl)-[1,2,4]triazine], for which, under setting [1], the half-maximal inhibitory concentration (IC50) lay within 100 to 1000 nM.

In the case of `Cc1n[nH]c2ccc(-c3nncc(N4CCCC(CN)C4)n3)cc12` (stereo not drawn) [Compound 35, 5-(3-aminmethylopiperidin-1-yl)-3-(3-methylindazol-5-yl)-[1,2,4]triazine], under setting [1], the half-maximal inhibitory concentration (IC50) is greater than 1000 nM.

Consider `Cc1n[nH]c2ccc(-c3nnc(Cl)c(N4CCCC(CN)C4)n3)cc12` (stereo not drawn) [Compound 36, 5-(3-aminmethyiopiperidin-1-yl)-6-chloro-3-(3-methylindazol-5-yl)-[1,2,4]triazine], for which the concentration for half-maximal inhibition (IC50) under setting [1] lay in the range of 100 to 1000 nM.

With `Cc1n[nH]c2ccc(-c3nncc(N4CCC(N)C4)n3)cc12` (stereo not drawn) [Compound 37, 5-(3-aminopyrrolidin-1-yl)-3-(3-methylindazol-5-yl)-[1,2,4]triazine], the half-maximal inhibitory concentration (IC50) under setting [1] was in the range of 100 to 1000 nM.

Turning to `Cc1n[nH]c2ccc(-c3nnc(Cl)c(N4CCC(N)C4)n3)cc12` (stereo not drawn) [Compound 38, 5-(3-aminopyrrolidin-1-yl)-6-chloro-3-(3-methylindazol-5-yl)-[1,2,4]triazine], under setting [1], the IC50 is less than 100 nM.

`COC(=O)C1CN(c2cnnc(-c3ccc4[nH]nc(C)c4c3)n2)CCN1` (stereo not drawn) [Compound 39]: the IC50 under setting [1] was greater than 1000 nM.

On to `COC(=O)C1CN(c2nc(-c3ccc4[nH]nc(C)c4c3)nnc2Cl)CCN1` (stereo not drawn) [Compound 40], for which the IC50 under setting [1] was greater than 1000 nM.

With `Cc1n[nH]c2ccc(-c3nncc(N4CCNC5(CCCC5)C4)n3)cc12` [Compound 41, 5-(6,9-diaza-spiro[4.5]dec-9-yl)-3-(3-methylindazol-5-yl)-[1,2,4]triazine], the IC50 under setting [1] fell in the range of 100 to 1000 nM.

As to `Cc1n[nH]c2ccc(-c3nncc(N4CCN[C@H](c5ccccc5)C4)n3)cc12` [Compound 42, 3-(3-methylindazol-5-yl)-5-[(R)-3-phenylpiperazin-1-yl]-[1,2,4]triazine], the IC50 under setting [1] fell in the range of 100 to 1000 nM.

Regarding `Cc1n[nH]c2ccc(-c3nnc(Cl)c(N4CCN[C@H](c5ccccc5)C4)n3)cc12` [Compound 43, 6-chloro-3-(3-methylindazol-5-yl)-5-[(R)-3-phenylpiperazin-1-yl]-[1,2,4]triazine], the IC50 under setting [1] is 100 to 1000 nM.

As to `Cc1n[nH]c2ccc(-c3nncc(N4CCNC5(CCCCC5)C4)n3)cc12` [Compound 44, 5-(1,4-diaza-spiro[5.5]undec-4-yl)-3-(3-methylindazol-5-yl)-[1,2,4]triazine], the IC50 under setting [1] was less than 100 nM.

Consider `Cc1n[nH]c2ccc(-c3nncc(N4CCNC(Cc5ccc(F)cc5)C4)n3)cc12` (stereo not drawn) [Compound 45, 5-[3-(4-fluorobenzyl)piperazin-1-yl]-3-(3-methylindazol-5-yl)-[1,2,4]triazine], for which the IC50 under setting [1] was less than 100 nM.

Take `Cc1n[nH]c2ccc(-c3nncc(N4CCNCC4)n3)cc12` [Compound 46, 3-(3-methylindazol-5-yl)-5-(piperazin-1-yl)-[1,2,4]triazine]: the IC50 under setting [1] was 100 to 1000 nM.

For the compound `Cc1n[nH]c2ccc(-c3nncc(N4CCNC(Cc5cccc(F)c5)C4)n3)cc12` (stereo not drawn) [Compound 47, 5-[3-(3-fluorobenzyl)piperazin-1-yl]-3-(3-methylindazol-5-yl)-[1,2,4]triazine], the IC50 under setting [1] is less than 100 nM.

With `Cc1n[nH]c2ccc(-c3nncc(N4CCNC(Cc5ccccc5F)C4)n3)cc12` (stereo not drawn) [Compound 48, 5-[3-(2-fluorobenzyl)piperazin-1-yl]-3-(3-methylindazol-5-yl)-[1,2,4]triazine], the IC50 under setting [1] was less than 100 nM.

As for `c1ccc(CNc2nnc(-c3ccc4[nH]nc(-c5ccccc5)c4c3)nc2N2CCNCC2)cc1` [Compound 53, 6-Benzylamino-3-(3-phenylindazol-5-yl)-5-(piperazin-1-yl)-[1,2,4]triazine], under setting [1], the IC50 was greater than 1000 nM.

Consider `Cc1n[nH]c2ccc(-c3nncc(N4CCNC(Cc5ccccc5)(Cc5ccccc5)C4)n3)cc12` [Compound 54, 5-(3,3-dibenzylpiperazin-1-yl)-3-(3-methylindazol-5-yl)-[1,2,4]triazine], for which, under setting [1], the IC50 lay in the range of 100 to 1000 nM.

Take `c1ccc(C[C@H]2CN(c3cnnc(-c4ccc5[nH]ncc5c4)n3)CCN2)cc1` [Compound 55, 5-[(S)-3-benzylpiperazin-1-yl]-3-indazol-5-yl-[1,2,4]triazine]: the IC50 under setting [1] was less than 100 nM.

In the case of `Clc1n[nH]c2ccc(-c3nncc(N4CCN[C@@H](Cc5ccccc5)C4)n3)cc12` [Compound 56, 5-[(S)-3-benzylpiperazin-1-yl]-3-(3-chloroindazol-5-yl)-[1,2,4]triazine], the IC50 is, setting by setting: (read-out: IC50 (AKT1 inhibition)) 5.7 nM; under setting [1], less than 100 nM.

Regarding `Cc1n[nH]c2ccc(-c3nncc(N4CCNC(Cc5cccnc5)C4)n3)cc12` (stereo not drawn) [Compound 57, 3-(3-Methylindazol-5-yl)-5-[3-(pyridin-3-ylmethyl)piperazin-1-yl]-[1,2,4]triazine], the half-inhibitory concentration (IC50) under setting [1] lay in the range of 100 to 1000 nM.

For `Cc1n[nH]c2ccc(-c3nncc(N4CCNC(Cc5ccccn5)C4)n3)cc12` (stereo not drawn) [Compound 58, 3-(3-methylindazol-5-yl)-5-[3-(pyridin-2-ylmethyl)piperazin-1-yl]-[1,2,4]triazine], under setting [1], the IC50 is greater than 1000 nM.

Turning to `Cc1n[nH]c2ccc(-c3nncc(N4CCCC(Cc5ccccc5)C4)n3)cc12` (stereo not drawn) [Compound 59, 5-(3-benzylpiperidin-1-yl)-3-(3-methylindazol-5-yl)-[1,2,4]triazine], under setting [1], the IC50 was 100 to 1000 nM.

For `Cc1n[nH]c2ccc(-c3nncc(N4CCN(CCO)[C@@H](Cc5ccccc5)C4)n3)cc12` [Compound 60, 5-[(S)-3-benzyl-4-hydroxyethyl-piperazin-1-yl]-3-(3-methylindazol-5-yl)-[1,2,4]triazine], the IC50 under setting [1] was 100 to 1000 nM.

Consider `CC(C)C[C@H]1CN(c2cnnc(-c3ccc4[nH]ncc4c3)n2)CCN1` [Compound 61, 3-indazol-5-yl-5-[(S)-3-isobutylpiperazin-1-yl]-[1,2,4]triazine], for which the IC50 under setting [1] was less than 100 nM.

With `CCOC(=O)C1(Cc2ccccc2)CCCN(c2cnnc(-c3ccc4[nH]nc(C)c4c3)n2)C1` (stereo not drawn) [Compound 62, 5-(3-benzyl-3-ethoxycarbonylpiperidin-1-yl)-3-(3-methylindazol-5-yl)-[1,2,4]triazine], under setting [1], the IC50 lay in the range of 100 to 1000 nM.

Regarding `Cc1n[nH]c2ccc(-c3nncc(N4CCCC(CO)(Cc5ccccc5)C4)n3)cc12` (stereo not drawn) [Compound 63], the IC50 under setting [1] was 100 to 1000 nM.
